EC50 data for 14 molecules are collected here from US11155525B2 (Sanford Burnham Prebys Medical Discovery Institute, priority 2015, dated 2021).

The test has as its target T1, human apelin receptor (Homo sapiens, UniProt P35414).
T1 construct: host or cells: CHO cells
T1 sequence (P35414 1-380): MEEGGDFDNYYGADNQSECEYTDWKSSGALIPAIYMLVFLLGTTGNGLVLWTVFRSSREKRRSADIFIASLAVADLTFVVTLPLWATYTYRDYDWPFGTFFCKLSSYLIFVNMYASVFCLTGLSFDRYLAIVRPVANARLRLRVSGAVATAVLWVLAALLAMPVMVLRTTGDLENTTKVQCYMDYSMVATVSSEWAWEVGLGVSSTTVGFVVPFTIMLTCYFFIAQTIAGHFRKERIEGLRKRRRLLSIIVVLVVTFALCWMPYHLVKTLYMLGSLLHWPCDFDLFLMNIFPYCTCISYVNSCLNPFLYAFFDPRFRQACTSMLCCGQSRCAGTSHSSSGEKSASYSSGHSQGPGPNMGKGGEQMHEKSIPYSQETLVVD
As to the kind of experiment: Measurement of apelin receptor agonist activity (cell-based assay determining the amount of intracellular cAMP). As to conditions: CHO cells stably expressing the human apelin receptor, Forskolin 10 μM, 30 minutes, 100% efficacy = [Pyr1]-apelin-13 0.300 μM, concentration giving 50% efficacy. The essentials: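 CHO cells stably expressing the receptor were treated for 30 min with compound ([…], 3-fold, 11 points; 0.3% DMSO) together with 10 μM forskolin. cAMP was measured by chemiluminescent lysate assay. Efficacy was scaled from forskolin alone (0%) to 0.300 μM [Pyr1]-apelin-13 plus forskolin (100%), and dose-response curves were fitted.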
One may read the EC50 as the concentration giving half of the maximal effect. Low values mean an effect from little substance, high ones a need for much substance. Regarding `COc1cccc(OC)c1-n1c(/C=C/C(C)=O)nnc1-c1ccc(C)o1` [Example 20, (3E)-4-[4-(2,6-Dimethoxyphenyl)-5-(5-methylfuran-2-yl)-4H-1,2,4-triazol-3-yl]but-3-en-2-one], the EC50 was 0.729 µM. `COc1cccc(OC)c1-n1c(/C=C/C(=O)N(C)OC)nnc1-c1ccc(C)o1` [Example 54, (2E)-3-[4-(2,6-Dimethoxyphenyl)-5-(5-methylfuran-2-yl)-4H-1,2,4-triazol-3-yl]-N-methoxy-N-methylprop-2-enamide] came in with an EC50 of 1.2 µM. In turn, `COc1cccc(OC)c1-n1c(SCc2cc(=O)n3nccc3[nH]2)nnc1-c1ccc(C)o1` [Example 16, 5-({[4-(2,6-Dimethoxyphenyl)-5-(5-methylfuran-2-yl)-4H-1,2,4-triazol-3-yl]sulfanyl}methyl)pyrazolo[1,5-a]pyrimidin-7(4H)-one] came in with an EC50 of 0.314 µM.

On to `COc1cccc(OC)c1-n1c(SCC(=O)O)cnc1-c1ccc(C)o1` [Example 60, {[1-(2,6-Dimethoxyphenyl)-2-(5-methylfuran-2-yl)-1H-imidazol-5-yl]sulfanyl}acetic acid], for which the EC50 came to 1.3 µM. The molecule `CCOC(=O)CCc1nnc(-c2ccc(C)o2)n1-c1c(OC)cccc1OC` [Example 12, Ethyl 3-[4-(2,6-dimethoxyphenyl)-5-(5-methylfuran-2-yl)-4H-1,2,4-triazol-3-yl]propanoate] had an EC50 of 0.701 µM. Regarding `COc1cccc(OC)c1-n1c(/C=C/C(=O)O)nnc1-c1ccc(C)o1` [Example 65, Sodium (2E)-3-[4-(2,6-dimethoxyphenyl)-5-(5-methylfuran-2-yl)-4H-1,2,4-triazol-3-yl]prop-2-enoate], the EC50 was found to be 0.075 µM. For the molecule `COc1cccc(OC)c1-n1c(SC(C(=O)O)C(C)C)nnc1-c1ccc(C)o1` (centres unmarked) [Example 43, 2-{[4-(2,6-Dimethoxyphenyl)-5-(5-methylfuran-2-yl)-4H-1,2,4-triazol-3-yl]sulfanyl}-3-methylbutanoic acid], a half-maximal effect (EC50) was put at 0.039 µM. `COc1cccc(OC)c1-n1c(SCc2cc(=O)n3cc(C)ccc3n2)nnc1-c1cccs1` [Example 11] gave an EC50 of 0.005 µM. In turn, `COC(=O)c1ccc(CSc2nnc(-c3ccc(C)o3)n2-c2c(OC)cccc2OC)cc1` [Example 81, Methyl 4-({[4-(2,6-dimethoxyphenyl)-5-(5-methylfuran-2-yl)-4H-1,2,4-triazol-3-yl]sulfanyl}methyl)benzoate] displayed an EC50 of 0.071 µM. For the molecule `CCCC(Sc1nnc(-c2ccc(C)o2)n1-c1c(OC)cccc1OC)C(=O)O` (centres unmarked) [Example 42, 2-{[4-(2,6-Dimethoxyphenyl)-5-(5-methylfuran-2-yl)-4H-1,2,4-triazol-3-yl]sulfanyl}pentanoic acid], the half-maximal effective concentration (EC50) was 0.012 µM. For the molecule `COc1cccc(OC)c1-n1c(SCc2ccc(C(N)=O)cc2)nnc1-c1ccc(C)o1` [Example 105, 4-({[4-(2,6-Dimethoxyphenyl)-5-(5-methylfuran-2-yl)-4H-1,2,4-triazol-3-yl]sulfanyl}methyl)benzamide], it took 1.2 µM to reach a half-maximal effect (EC50). Molecule `CCOC(=O)COCc1nnc(-c2ccc(C)o2)n1-c1c(OC)cccc1OC` [Example 66, Ethyl {[4-(2,6-dimethoxyphenyl)-5-(5-methylfuran-2-yl)-4H-1,2,4-triazol-3-yl]methoxy}acetate] came in with an EC50 of 0.817 µM. The molecule `CCOC(=O)C(=O)/C=C/c1nnc(-c2ccc(C)o2)n1-c1c(OC)cccc1OC` [Example 51, Ethyl (3E)-4-[4-(2,6-dimethoxyphenyl)-5-(5-methylfuran-2-yl)-4H-1,2,4-triazol-3-yl]-2-oxobut-3-enoate] had an EC50 of 0.111 µM. This EC50 lies about 7.4-fold lower than the previous one. Regarding `COc1cccc(OC)c1-n1c(SCc2cc(=O)[nH]c(=O)[nH]2)nnc1-c1ccc(C)o1` [Example 14, 6-({[4-(2,6-Dimethoxyphenyl)-5-(5-methylfuran-2-yl)-4H-1,2,4-triazol-3-yl]sulfanyl}methyl)pyrimidine-2,4(1H,3H)-dione], the concentration for a half-maximal effect (EC50) was 0.424 µM.
